Measurements reported in US20230150952A1, “TYPE 2 RYANODINE RECEPTOR ACTIVITY INHIBITOR” (JUNTENDO EDUCATIONAL FOUNDATION, priority 2020, published 2023).

Key:
[1] = biological target: type 2 ryanodine receptor (Mus musculus, UniProt E9Q401); experiment: type 2 ryanodine receptor activity inhibitory effect: endoplasmic reticulum Ca2+ (R-CEPIA1er fluorescence) in RyR-expressing HEK293 cells; type: cell-based; conditions: final concentration 10^-9 to 10^-4 M; Hill equation fit; ER Ca2+ fluorescence in HEK293 cells
Method: The EC50 value of each of the compounds shown in Table 13 with respect to the type 2 ryanodine receptor activity inhibitory effect, was measured in accordance with the following procedure.
cDNA of RyR2 was cloned from the heart muscle of a mouse by a PCR method and introduced into an expression vector (pcDNA5/FRT/TO) for Flp-In T-REX having hygromycin resistance. The vector is a tetracycline-inducible expression (Tet-On) vector and induces expression of RyR in the presence of doxycycline.
Also, R-CEPIA1er described in Nat. Commun., 2014, 5: 4153 was introduced into a neomycin resistant expression vector, pCMV/myc/ER. This vector constantly expresses R-CEPIA1er.
As HEK293 cells, Flp-In T-REX 293 cells corresponding to the Tet-On inducible system were prepared. The cells were cultured in a CO2 incubator at 37° C.
(§1) A pathogenic mutant-type RyR gene was introduced into Flp-In T-REX 293 cells by a lipofection method. The cells were cultured in a medium containing hygromycin for 10 to 14 days to establish a pathogenic mutant RyR stably expressing strain. Into the pathogenic mutant RyR stably expressing strain, an R-CEPIA1er expression vector was introduced by a lipofection method. The strain was cultured in a medium containing G418 to establish a stable dual expression strain expressing a pathogenic mutant-type RyR gene and R-CEPIA1er.
as §1, with “A wild-type” for “A pathogenic mutant-type”, “a” for “a pathogenic mutant”, “the” for “the pathogenic mutant”, “a wild-type” for “a pathogenic mutant-type”
The cultured cells expressing a pathogenic mutant RyR and R-CEPIA1er and the cultured cells expressing wild type RyR and R-CEPIA1er were separately cultured in plastic dishes at 37° C. for 24 hours. Then, the medium was exchanged with a medium containing doxycycline and the cells were further cultured for 24 hours. Fluorescence measurement was carried out by use of FlexStation. R-CEPIA1er was excited at 560 nm to acquire fluorescence at 610 nm. Fluorescence was acquired every 10 seconds for 300 seconds. The compounds shown in Table 13 each were added 60 seconds after initiation, and Ca^2+ concentration in the fluorescent endoplasmic reticulum was measured.
Inhibitory effects of the compounds on type 2 ryanodine receptor activity shown in Table 13 each were measured in the range of a final concentration of 10^−9 to 10^−4 M by the methods above. Based on the measurement results, a dose-response curve approximating the Hill equation was obtained by the least squares method. In this manner, EC50 values were calculated.

[2] = system: mouse having RyR2 I4093V mutation; experiment: electrocardiogram of RyR2 mutation-harboring mouse before and after intraperitoneal administration; type: in vivo; conditions: for occurrence of arrhythmia (ratio of time when arrhythmia occurs): 5-15 minutes after administration, FIG. 2
Description: In Riken BRC, male mice administered with N-ethyl-N-nitrosourea (ENU) were crossed with normal wild type females to obtain child mice (First generation: G1). These G1 mice were subjected to systematic phenotypic screening. […] As a result, a mouse having RyR2 I4093V mutation (RyR2 c.12277A>G (NM_023868.2) p.I4093V (NP_076357.2)) was found. The mouse was backcrossed with a normal wild type mouse (8 generations or more). As a result, mice conceivably having a mutation of RyR2 I4093V alone were obtained.
Compound 57 shown in Table 10 was dissolved in saline (0.9% aqueous NaCl solution) to prepare a 0.03-0.1 mg/mL solution containing compound 57. • (3) Measurement of Electrocardiogram of RyR2 Mutation-Harboring Mouse and Administration of Drug
The aforementioned mutant mice of 4-5 months old were subjected to anesthesia induction with 2% isoflurane. While maintaining the anesthetic state with 1% isoflurane, electrodes for electrocardiogram were attached to four limbs and electrocardiographical monitoring was continuously carried out. Before drug administration, electrocardiographical monitoring was carried out for 10 minutes. Then, the solution containing compound 57 prepared above was intraperitoneally injected so as to have a concentration of 0.3 mg/kg or 1 mg/kg. The electrocardiogram was recorded for further 15 minutes.
The time during which successive bigeminal pulse, trigeminal pulse or ventricular tachycardia (regarded as arrhythmia) occurred during 5-15 minutes after administration of compound 57, were summed up per individual and the ratio of time when arrhythmia occurs was obtained.

Chain of type 2 ryanodine receptor (E9Q401 whole entry): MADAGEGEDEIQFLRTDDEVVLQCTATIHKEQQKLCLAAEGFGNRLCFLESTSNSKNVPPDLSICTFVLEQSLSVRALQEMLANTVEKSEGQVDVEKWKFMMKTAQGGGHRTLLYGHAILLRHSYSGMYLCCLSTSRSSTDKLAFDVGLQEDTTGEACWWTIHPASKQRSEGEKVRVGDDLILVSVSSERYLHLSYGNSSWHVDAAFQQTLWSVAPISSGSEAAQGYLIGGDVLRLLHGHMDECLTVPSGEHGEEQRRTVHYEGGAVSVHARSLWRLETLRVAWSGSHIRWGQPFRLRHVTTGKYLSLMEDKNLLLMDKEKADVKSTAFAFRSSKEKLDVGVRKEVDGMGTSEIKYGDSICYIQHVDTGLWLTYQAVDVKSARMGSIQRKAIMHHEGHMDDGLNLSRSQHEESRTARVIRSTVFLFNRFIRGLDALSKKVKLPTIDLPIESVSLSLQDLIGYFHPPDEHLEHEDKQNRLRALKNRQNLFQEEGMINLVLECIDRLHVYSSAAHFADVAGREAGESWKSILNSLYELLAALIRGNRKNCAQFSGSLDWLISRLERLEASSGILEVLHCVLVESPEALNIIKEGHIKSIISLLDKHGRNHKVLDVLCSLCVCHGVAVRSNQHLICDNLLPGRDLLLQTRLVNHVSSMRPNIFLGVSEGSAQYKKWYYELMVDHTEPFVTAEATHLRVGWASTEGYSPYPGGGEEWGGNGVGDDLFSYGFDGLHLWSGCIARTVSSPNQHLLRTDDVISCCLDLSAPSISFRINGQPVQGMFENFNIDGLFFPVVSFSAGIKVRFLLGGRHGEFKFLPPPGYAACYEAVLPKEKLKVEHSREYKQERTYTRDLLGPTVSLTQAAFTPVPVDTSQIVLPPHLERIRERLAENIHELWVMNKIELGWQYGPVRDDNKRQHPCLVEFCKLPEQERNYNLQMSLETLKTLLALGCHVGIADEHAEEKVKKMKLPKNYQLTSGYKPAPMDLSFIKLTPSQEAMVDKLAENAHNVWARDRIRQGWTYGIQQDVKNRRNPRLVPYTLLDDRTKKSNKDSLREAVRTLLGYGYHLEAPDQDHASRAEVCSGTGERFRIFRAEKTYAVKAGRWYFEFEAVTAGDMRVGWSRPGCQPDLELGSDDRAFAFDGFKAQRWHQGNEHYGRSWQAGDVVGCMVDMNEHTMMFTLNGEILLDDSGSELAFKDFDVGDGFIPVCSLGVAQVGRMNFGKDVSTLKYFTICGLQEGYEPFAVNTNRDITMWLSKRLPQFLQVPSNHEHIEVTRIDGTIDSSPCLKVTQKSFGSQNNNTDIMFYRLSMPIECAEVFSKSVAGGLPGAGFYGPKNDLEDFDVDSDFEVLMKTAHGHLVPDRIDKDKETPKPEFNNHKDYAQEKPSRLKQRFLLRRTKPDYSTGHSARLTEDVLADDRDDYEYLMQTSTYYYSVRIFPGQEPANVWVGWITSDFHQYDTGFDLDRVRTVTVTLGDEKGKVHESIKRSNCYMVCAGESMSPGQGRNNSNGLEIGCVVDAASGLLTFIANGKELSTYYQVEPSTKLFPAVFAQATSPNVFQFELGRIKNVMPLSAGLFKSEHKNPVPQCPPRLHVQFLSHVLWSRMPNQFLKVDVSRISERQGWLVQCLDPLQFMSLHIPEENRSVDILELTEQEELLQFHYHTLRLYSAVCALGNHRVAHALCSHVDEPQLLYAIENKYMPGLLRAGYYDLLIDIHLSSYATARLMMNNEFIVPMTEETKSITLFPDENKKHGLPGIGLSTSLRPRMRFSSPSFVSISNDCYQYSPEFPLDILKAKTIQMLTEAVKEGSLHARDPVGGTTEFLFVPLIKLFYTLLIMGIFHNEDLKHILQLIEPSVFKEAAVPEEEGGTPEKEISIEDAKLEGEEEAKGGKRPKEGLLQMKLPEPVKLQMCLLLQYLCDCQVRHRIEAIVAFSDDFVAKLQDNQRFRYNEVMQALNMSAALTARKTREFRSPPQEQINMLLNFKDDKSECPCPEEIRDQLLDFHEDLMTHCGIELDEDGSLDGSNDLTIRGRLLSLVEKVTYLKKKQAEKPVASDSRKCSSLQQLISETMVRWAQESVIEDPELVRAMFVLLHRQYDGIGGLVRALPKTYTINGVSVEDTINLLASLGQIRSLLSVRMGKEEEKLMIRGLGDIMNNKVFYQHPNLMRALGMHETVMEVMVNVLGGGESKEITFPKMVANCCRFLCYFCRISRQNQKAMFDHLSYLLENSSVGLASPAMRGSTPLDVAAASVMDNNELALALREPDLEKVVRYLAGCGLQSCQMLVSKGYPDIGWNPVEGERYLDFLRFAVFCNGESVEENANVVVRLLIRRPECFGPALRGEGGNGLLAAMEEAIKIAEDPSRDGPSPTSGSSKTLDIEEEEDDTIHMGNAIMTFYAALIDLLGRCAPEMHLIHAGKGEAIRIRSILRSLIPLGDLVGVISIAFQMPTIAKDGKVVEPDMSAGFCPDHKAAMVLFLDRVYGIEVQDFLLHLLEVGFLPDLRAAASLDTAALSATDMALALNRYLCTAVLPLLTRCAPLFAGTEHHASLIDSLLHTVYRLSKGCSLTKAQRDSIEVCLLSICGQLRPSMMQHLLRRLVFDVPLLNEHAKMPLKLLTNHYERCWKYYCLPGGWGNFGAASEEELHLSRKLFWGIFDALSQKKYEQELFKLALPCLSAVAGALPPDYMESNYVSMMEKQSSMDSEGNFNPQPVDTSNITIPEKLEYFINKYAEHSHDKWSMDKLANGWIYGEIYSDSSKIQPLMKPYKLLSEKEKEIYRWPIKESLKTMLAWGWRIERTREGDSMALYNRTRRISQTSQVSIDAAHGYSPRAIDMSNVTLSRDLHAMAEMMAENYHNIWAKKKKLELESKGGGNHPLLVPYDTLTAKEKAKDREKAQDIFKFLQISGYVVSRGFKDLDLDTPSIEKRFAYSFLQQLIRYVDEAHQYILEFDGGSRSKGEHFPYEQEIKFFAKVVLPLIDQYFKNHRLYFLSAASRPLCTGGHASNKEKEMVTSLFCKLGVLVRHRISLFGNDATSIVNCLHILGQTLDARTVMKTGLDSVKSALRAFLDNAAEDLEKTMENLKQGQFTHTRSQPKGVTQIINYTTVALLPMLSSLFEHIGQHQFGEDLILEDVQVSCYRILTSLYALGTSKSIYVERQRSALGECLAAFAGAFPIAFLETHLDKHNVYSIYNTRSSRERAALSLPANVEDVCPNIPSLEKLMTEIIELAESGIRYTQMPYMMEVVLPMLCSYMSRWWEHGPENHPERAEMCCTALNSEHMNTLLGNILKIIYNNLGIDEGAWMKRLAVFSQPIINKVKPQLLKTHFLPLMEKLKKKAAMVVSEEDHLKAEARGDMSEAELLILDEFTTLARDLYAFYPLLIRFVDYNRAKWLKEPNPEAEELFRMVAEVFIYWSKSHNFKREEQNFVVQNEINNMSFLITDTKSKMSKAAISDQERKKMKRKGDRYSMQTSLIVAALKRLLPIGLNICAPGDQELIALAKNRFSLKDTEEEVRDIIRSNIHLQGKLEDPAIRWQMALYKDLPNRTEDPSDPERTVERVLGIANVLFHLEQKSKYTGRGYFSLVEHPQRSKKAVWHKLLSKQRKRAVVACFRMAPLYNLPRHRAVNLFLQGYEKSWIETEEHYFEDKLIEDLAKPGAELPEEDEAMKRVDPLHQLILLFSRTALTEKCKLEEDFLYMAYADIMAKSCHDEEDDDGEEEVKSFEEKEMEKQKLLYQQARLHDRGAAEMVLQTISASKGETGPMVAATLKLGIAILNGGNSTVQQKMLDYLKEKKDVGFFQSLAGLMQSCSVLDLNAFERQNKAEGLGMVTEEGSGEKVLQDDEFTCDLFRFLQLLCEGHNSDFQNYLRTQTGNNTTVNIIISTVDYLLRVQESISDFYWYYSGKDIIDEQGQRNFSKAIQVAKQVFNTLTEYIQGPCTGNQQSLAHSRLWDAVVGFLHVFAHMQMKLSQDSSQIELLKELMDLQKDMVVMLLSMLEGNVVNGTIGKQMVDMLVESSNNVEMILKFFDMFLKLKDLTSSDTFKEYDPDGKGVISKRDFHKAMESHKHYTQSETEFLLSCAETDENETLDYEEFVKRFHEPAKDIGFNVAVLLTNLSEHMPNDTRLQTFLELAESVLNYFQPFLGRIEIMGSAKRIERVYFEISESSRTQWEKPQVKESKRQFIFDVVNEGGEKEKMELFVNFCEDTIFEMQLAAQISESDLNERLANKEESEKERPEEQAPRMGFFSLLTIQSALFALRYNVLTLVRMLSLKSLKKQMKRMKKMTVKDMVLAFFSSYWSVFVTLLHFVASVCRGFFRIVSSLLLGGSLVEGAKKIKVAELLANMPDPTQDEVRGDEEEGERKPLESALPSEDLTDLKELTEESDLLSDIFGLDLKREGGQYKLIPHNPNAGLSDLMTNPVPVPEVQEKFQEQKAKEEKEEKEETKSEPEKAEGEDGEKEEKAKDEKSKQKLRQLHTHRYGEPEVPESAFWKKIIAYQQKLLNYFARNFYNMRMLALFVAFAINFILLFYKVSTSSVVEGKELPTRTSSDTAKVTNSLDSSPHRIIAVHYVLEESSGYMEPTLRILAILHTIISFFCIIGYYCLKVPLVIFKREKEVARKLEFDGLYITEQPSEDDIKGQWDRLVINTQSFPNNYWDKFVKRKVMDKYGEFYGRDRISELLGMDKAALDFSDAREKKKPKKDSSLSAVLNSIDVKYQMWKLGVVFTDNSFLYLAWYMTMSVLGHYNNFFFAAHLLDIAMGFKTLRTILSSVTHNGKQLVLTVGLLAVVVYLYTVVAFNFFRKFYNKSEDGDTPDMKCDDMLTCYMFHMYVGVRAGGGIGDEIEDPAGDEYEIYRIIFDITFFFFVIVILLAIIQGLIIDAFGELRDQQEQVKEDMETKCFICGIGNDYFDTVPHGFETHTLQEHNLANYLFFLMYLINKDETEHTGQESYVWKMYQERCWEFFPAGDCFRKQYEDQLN

| Structure (SMILES) | EC50 [1] | other results |
| --- | --- | --- |
| COc1cccc(N(C)C(=O)Cn2nnc(-c3ccccc3)n2)c1 [Compound 40] | 8310 nM | – |
| COc1cccc(-c2nnn(CC(=O)N(C)c3ccccc3)n2)c1 [Compound 46] | 147 nM | – |
| CCN(C(=O)Cn1nnc(-c2ccc(OC(F)(F)F)cc2)n1)c1ccc(F)cc1 [Compound 63] | 1050 nM | – |
| COc1cccc(-c2nnn(CC(=O)N(C)c3ccc(F)c(OC)c3)n2)c1 [Compound 53] | 51 nM | – |
| COc1ccc(N(C)C(=O)Cn2nnc(-c3ccccc3)n2)cc1 [Compound 41] | 154 nM | – |
| COc1cccc(-c2nnn(CC(=O)N(C)c3ccc(F)cc3)n2)c1 [Compound 49] | 44 nM | – |
| Cc1ccc(N(C)C(=O)Cn2nnc(-c3ccccc3)n2)cc1 [Compound 38] | 2770 nM | – |
| CCN(C(=O)Cn1nnc(-c2ccccc2)n1)c1ccccc1 [Compound 58] | 5460 nM | – |
| CCN(C(=O)Cn1nnc(-c2ccccc2)n1)c1ccc(OC(F)(F)F)cc1 [Compound 61] | 44200 nM | – |
| CCN(C(=O)Cn1nnc(-c2ccccc2)n1)c1ccc(F)cc1 [Compound 60] | 768 nM | – |
| CN(C(=S)Cn1nnc(-c2cccc(F)c2)n1)c1ccc(F)cc1 [Compound 70] | 33 nM | – |
| CN(C(=O)Cn1nnc(-c2cccc(F)c2)n1)c1ccc(F)cc1 [Compound 51] | 49 nM | – |
| CN(C(=O)Cn1nnc(-c2ccccc2)n1)c1ccccc1 [Compound 35] | 676 nM | – |
| CCN(C(=O)Cn1nnc(-c2ccccc2)n1)c1ccc(OC)cc1 [Compound 59] | 1360 nM | – |
| COc1ccc(N(C)C(=S)Cn2nnc(-c3cccc(OC)c3)n2)cc1 [Compound 67] | 41 nM | – |
| COc1cccc(-c2nnn(CC(=O)N(C)c3ccc4c(c3)OCO4)n2)c1 [Compound 54] | 48 nM | – |
| COc1ccc(N(C)C(=O)Cn2nnc(-c3cccc(F)c3)n2)cc1 [Compound 50] | 36 nM | – |
| COc1cccc(-c2nnn(CC(=S)N(C)c3ccc(F)cc3)n2)c1 [Compound 68] | 31 nM | – |
| COc1ccccc1-c1nnn(CC(=O)N(C)c2ccccc2)n1 [Compound 45] | 3370 nM | – |
| COc1ccc(-c2nnn(CC(=O)N(C)c3ccccc3)n2)cc1 [Compound 47] | 1250 nM | – |
| CCN(C(=O)Cn1nnc(-c2ccc(OC)cc2)n1)c1ccc(OC)cc1 [Compound 62] | 2680 nM | – |
| COc1ccc(N(C)C(=O)Cn2nnc(-c3cccc(OC)c3)n2)cc1 [Compound 48] | 43 nM | – |
| CN(C(=O)Cn1nnc(-c2cc(F)cc(F)c2)n1)c1ccc(F)cc1 [Compound 57] | 15 nM | occurrence of arrhythmia (ratio of time when arrhythmia occurs) ([2]; 0.3 mg/kg intraperitoneal): low; ECG (bidirectional ventricular tachycardia before administration) ([2]; 0.3 mg/kg intraperitoneal, RyR2 I4093V mice, FIG. 1): went back to normal; occurrence of arrhythmia (ratio of time when arrhythmia occurs) ([2]; 1 mg/kg intraperitoneal): low |
| Cc1cccc(N(C)C(=O)Cn2nnc(-c3ccccc3)n2)c1 [Compound 37] | 606 nM | – |
| COc1ccc(N(C)C(=S)Cn2nnc(-c3cccc(F)c3)n2)cc1 [Compound 69] | 39 nM | – |
| CCCN(C(=O)Cn1nnc(-c2ccccc2)n1)c1ccccc1 [Compound 66] | 39500 nM | – |
